Columns and labels:
Format in all cases: cell-based
[1] = test system: Ba/F3-Mock cells; experiment: Cell proliferation suppression test (CellTiter-Glo, GI50), Ba/F3-Mock; conditions: Mus musculus, BaF3, 72 h, 5 ng/mL IL-3, 3 days, N=4
Experimental: (§1) Cell proliferation suppression test Ba/F3-Mock, Ba/F3-EGFR WT, Ba/F3-EGFR ins. ASV, and Ba/F3-EGFR ins. SVD cell lines were cultured based on a culture medium of 10% FBS-containing RPMI 1640 supplemented with 1.5 ug/mL puromycin, and 5 ng/mL IL-3 and 100 ng/mL of EGF were further added to the culture solution for Ba/F3-Mock and Ba/F3-EGFR WT, respectively. The cells were cultured in a CO2 incubator set at 37° C., 5% CO2. Specimens prepared by dilution were seeded into 384-well tissue culture plates with Echo555 (Labcyte Inc.), and the cells were seeded thereto at 400 cells/well for Ba/F3-Mock, Ba/F3-EGFR WT, and Ba/F3-EGFR ins. SVD and at 200 cells/well for Ba/F3-EGFR ins. ASV (day 0), then they were cultured for an additional 3 days. On the day of the compound addition (day 0) and 3 days after the compound addition (day 3), ATP quantity was measured with CellTiter-Glo (registered trademark) 2.0 (Promega Corporation.), and used as an indicator of cell quantity (N=4). In the test, puromycin-free culture medium was used. Concentrations at which cell proliferation from day 0 to day 3 was inhibited by 50% (GIso) were calculated with EXCEL.

[2] = test system: Ba/F3-EGFR WT cells; experiment: Cell proliferation suppression test (CellTiter-Glo, GI50), Ba/F3-EGFR WT; conditions: Mus musculus, 72 h, 100 ng/mL EGF, 3 days, N=4
Experimental: as §1

[3] = test system: Ba/F3-EGFR ins. ASV cells; experiment: Cell proliferation suppression test (CellTiter-Glo, GI50), Ba/F3-EGFR ins. ASV; conditions: Mus musculus, 72 h, 3 days, N=4
Experimental: as §1

[4] = test system: Ba/F3-EGFR ins. SVD cells; experiment: Cell proliferation suppression test (CellTiter-Glo, GI50), Ba/F3-EGFR ins. SVD; conditions: Mus musculus, 72 h, 3 days, N=4
Experimental: as §1

Row | Structure (SMILES) | GI50 [1] | GI50 [2] | GI50 [3] | GI50 [4]
1 | COc1cc2ncnc(Nc3ccc(Oc4cccc(-c5nnc(C)o5)c4)cc3F)c2cc1NC(=O)/C=C/CN(C)C [Example 39, (2E)-4-(Dimethylamino)-N-(4-{2-fluoro-4-[3-(5-methyl-1,3,4-oxadiazol-2-yl)phenoxy]anilino}-7-methoxyquinazolin-6-yl)but-2-enamide] | 1150 nM | 161 nM | 12.2 nM | 58.7 nM
2 | CCOc1cc2ncnc(Nc3ccc(Oc4cccc(-c5nnc(C)o5)c4)cc3F)c2cc1NC(=O)/C=C/CN(C)C [Example 40, (2E)-4-(Dimethylamino)-N-(7-ethoxy-4-{2-fluoro-4-[3-(5-methyl-1,3,4-oxadiazol-2-yl)phenoxy]anilino}quinazolin-6-yl)but-2-enamide] | 765 nM | 80.1 nM | 5.5 nM | 32.9 nM
3 | CCc1nnc(-c2cccc(Oc3ccc(Nc4ncnc5cc(OC)c(NC(=O)/C=C/CN(C)C)cc45)c(F)c3)c2)o1 [Example 41, (2E)-4-(Dimethylamino)-N-(4-{4-[3-(5-ethyl-1,3,4-oxadiazol-2-yl)phenoxy]-2-fluoroanilino)-7-methoxyquinazolin-6-yl)but-2-enamide] | 841 nM | 114 nM | 8.2 nM | 27 nM
4 | CCOc1cc2ncnc(Nc3ccc(Oc4cccc(-c5nnc(CC)o5)c4)cc3F)c2cc1NC(=O)/C=C/CN(C)C [Example 42, (2E)-4-(Dimethylamino)-N-(7-ethoxy-4-{4-[3-(5-ethyl-1,3,4-oxadiazol-2-yl)phenoxy]-2-fluoroanilino}quinazolin-6-yl)but-2-enamide] | 764 nM | 103 nM | 5.1 nM | 17.7 nM
5 | COc1cc2ncnc(Nc3ccc(Oc4cccc(-c5nnc(C(C)C)o5)c4)cc3F)c2cc1NC(=O)/C=C/CN(C)C [Example 43, (2E)-4-(Dimethylamino)-N-[4-(2-fluoro-4-{3-[5-(propan-2-yl)-1,3,4-oxadiazol-2-yl]phenoxy}anilino)-7-methoxyquinazolin-6-yl]but-2-enamide] | 806 nM | 69.8 nM | 5.5 nM | 14.1 nM
6 | COc1cc2ncnc(Nc3ccc(Oc4cccc(-c5nnc(C)s5)c4)cc3F)c2cc1NC(=O)/C=C/CN(C)C [Example 44, (2E)-4-(Dimethylamino)-N-(4-{2-fluoro-4-[3-(5-methyl-1,3,4-thiadiazol-2-yl)phenoxy]anilino}-7-methoxyquinazolin-6-yl)but-2-enamide] | 724 nM | 167 nM | 15.5 nM | 52.2 nM
7 | COc1cc2ncnc(Nc3ccc(Oc4nn(CC(=O)NC(C)(C)C)cc4F)cc3Cl)c2cc1NC(=O)/C=C/CN(C)C [Example 45, (2E)-N-{4-[4-({1-[2-(tert-Butylamino)-2-oxoethyl]-4-fluoro-1H-pyrazol-3-yl}oxy)-2-chloroanilino]-7-methoxyquinazolin-6-yl}-4-(dimethylamino)but-2-enamide] | 2840 nM | 412 nM | 10 nM | 11.6 nM
8 | COc1cc2ncnc(Nc3ccc(Oc4nn(CC(=O)NC(C)(C)C)cc4F)cc3F)c2cc1NC(=O)/C=C/CN(C)C [Example 46, (2E)-N-{4-[4-({1-[2-(tert-Butylamino)-2-oxoethyl]-4-fluoro-1H-pyrazol-3-yl}oxy)-2-fluoroanilino]-7-methoxyquinazolin-6-yl}-4-(dimethylamino)but-2-enamide] | 3090 nM | 261 nM | 6.5 nM | 4.7 nM
9 | COc1cc2ncnc(Nc3ccc(Oc4nc(C(=O)NC(C)(C)C)cs4)cc3F)c2cc1NC(=O)/C=C/CN(C)C [Example 47, N-tert-Butyl-2-{4-[(6-{[(2E)-4-(dimethylamino)but-2-enoyl]amino}-7-methoxyquinazolin-4-yl)amino]-3-fluorophenoxy}-1,3-thiazole-4-carboxamide] | 816 nM | 145 nM | 16.4 nM | 73.1 nM
10 | COc1cc2ncnc(Nc3ccc(Oc4nn(CC(=O)NC(C)(C)CF)cc4F)cc3Cl)c2cc1NC(=O)/C=C/CN(C)C [Example 48, (2E)-N-(4-{2-Chloro-4-[(4-fluoro-1-{2-[(1-fluoro-2-methylpropan-2-yl)amino]-2-oxoethyl}-1H-pyrazol-3-yl)oxy]anilino}-7-methoxyquinazolin-6-yl)-4-(dimethylamino) but-2-enamide] | 3170 nM | 638 nM | 8.1 nM | 4.9 nM
11 | COc1cc2ncnc(Nc3ccc(Oc4cccc(CC(=O)NC(C)(C)C)c4)cc3F)c2cc1NC(=O)/C=C/CN1CCOCC1 [Example 49, (2E)-N-[4-(4-{3-[2-(tert-Butylamino)-2-oxoethyl]phenoxy}-2-fluoroanilino)-7-methoxyquinazolin-6-yl]-4-(morpholin-4-yl)but-2-enamide] | > 10000 nM | 732 nM | 20.7 nM | 21.1 nM
12 | COc1cc2ncnc(Nc3ccc(Oc4cccc(-c5nnc(C)o5)c4)cc3F)c2cc1NC(=O)/C=C/CN1CCCC1 [Example 50, (2E)-N-(4-{2-Fluoro-4-[3-(5-methyl-1,3,4-oxadiazol-2-yl)phenoxy]anilino}-7-methoxyquinazolin-6-yl)-4-(pyrrolidin-1-yl)but-2-enamide] | 750 nM | 240 nM | 10.9 nM | 62.2 nM
13 | CCOc1cc2ncnc(Nc3ccc(Oc4cccc(-c5nnc(C6CC6)o5)c4)cc3F)c2cc1NC(=O)/C=C/CN(C)C [Example 51, (2E)-N-(4-{4-[3-(5-Cyclopropyl-1,3,4-oxadiazol-2-yl)phenoxy]-2-fluoroanilino}-7-ethoxyquinazolin-6-yl)-4-(dimethylamino)but-2-enamide] | 806 nM | 104 nM | 11.8 nM | 20.5 nM
14 | CCOc1cc2ncnc(Nc3ccc(Oc4cccc(-c5nnc(C)o5)c4)cc3F)c2cc1NC(=O)/C=C/CN[C@H]1CCOC1 [Example 52, (2E)-N-(7-Ethoxy-4-{2-fluoro-4-[3-(5-methyl-1,3,4-oxadiazol-2-yl)phenoxy]anilino}quinazolin-6-yl)-4-[(3S)-tetrahydrofuran-3-ylamino]but-2-enamide] | 2840 nM | 245 nM | 11.9 nM | 19.8 nM
15 | CCOc1cc2ncnc(Nc3ccc(Oc4cccc(-c5nnc(C)o5)c4)cc3F)c2cc1NC(=O)/C=C/CN[C@@H]1CCOC1 [Example 53, (2E)-N-(7-Ethoxy-4-{2-fluoro-4-[3-(5-methyl-1,3,4-oxadiazol-2-yl)phenoxy]anilino}quinazolin-6-yl)-4-[(3R)-tetrahydrofuran-3-ylamino]but-2-enamide] | 2950 nM | 229 nM | 11 nM | 16.7 nM
16 | COc1cc2ncnc(Nc3ccc(Oc4nn(CC(=O)NC(C)(C)C)cc4F)cc3Cl)c2cc1NC(=O)/C=C/CN1CCOCC1 [Example 54, (2E)-N-{4-[4-({1-[2-(tert-Butylamino)-2-oxoethyl]-4-fluoro-1H-pyrazol-3-yl}oxy)-2-chloroanilino]-7-methoxyquinazolin-6-yl}-4-(morpholin-4-yl)but-2-enamide] | > 10000 nM | 2890 nM | 33.4 nM | 50.6 nM
17 | COc1cc2ncnc(Nc3ccc(Oc4nn(CC(=O)NC(C)(C)C)cc4F)cc3Cl)c2cc1NC(=O)/C=C/CN1CC[C@@H](F)C1 [Example 56, (2E)-N-{4-[4-({1-[2-(tert-Butylamino)-2-oxoethyl]-4-fluoro-1H-pyrazol-3-yl}oxy)-2-chloroanilino]-7-methoxyquinazolin-6-yl}-4-[(3R)-3-fluoropyrrolidin-1-yl]but-2-enamide] | 4680 nM | 635 nM | 8.5 nM | 4.6 nM
18 | COc1cc2ncnc(Nc3ccc(Oc4nn(CC(=O)NC(C)(C)C)cc4F)cc3Cl)c2cc1NC(=O)/C=C/CN1CC[C@H](F)C1 [Example 57, (2E)-N-{4-[4-({1-[2-(tert-Butylamino)-2-oxoethyl]-4-fluoro-1H-pyrazol-3-yl}oxy)-2-chloroanilino]-7-methoxyquinazolin-6-yl}-4-[(3S)-3-fluoropyrrolidin-1-yl]but-2-enamide] | 5090 nM | 369 nM | 8.5 nM | 4.1 nM
19 | COc1cc2ncnc(Nc3ccc(Oc4nn(CC(=O)NC(C)(C)C)cc4F)cc3F)c2cc1NC(=O)/C=C/CN1CC(F)C1 [Example 59, (2E)-N-{4-[4-({1-[2-(tert-Butylamino)-2-oxoethyl]-4-fluoro-1H-pyrazol-3-yl}oxy)-2-fluoroanilino]-7-methoxyquinazolin-6-yl}-4-(3-fluoroazetidin-1-yl)but-2-enamide] | > 10000 nM | 468 nM | 11.9 nM | 7.4 nM
20 | COc1cc2ncnc(Nc3ccc(Oc4nn(CC(=O)NC(C)(C)C)cc4F)cc3F)c2cc1NC(=O)/C=C/CN1CC(OC)C1 [Example 60, (2E)-N-{4-[4-({1-[2-(tert-Butylamino)-2-oxoethyl]-4-fluoro-1H-pyrazol-3-yl}oxy)-2-fluoroanilino]-7-methoxyquinazolin-6-yl}-4-(3-methoxyazetidin-1-yl)but-2-enamide] | 6030 nM | 497 nM | 11.9 nM | 10.7 nM

From patent US20230025510A1, “BIARYL ETHER-TYPE QUINAZOLINE DERIVATIVES” (DAIICHI SANKYO COMPANY, LIMITED, priority 2018, published 2023)
